Source: patent US8202910B2 (Sequella, Inc., priority 2006, dated 2012)
Values after ≈ are worked out from the molar mass of the structure shown. “Also recorded” adds a separate entry of the source. Where two headings read alike, the source gives them in different places.

Assays:
[1] = Toxicity, dose escalation study in mice; conditions: C57BL/6, mouse, in vivo
Description: Toxicity was assessed using a dose escalation study. This study was performed with ten C57BL/6 mice per candidate. Every two days, the mice were administered an increased concentration of the drug, and monitored for detrimental effects. The administration scheme was 50, 100, 200, 400, 600, 800 and 1000 mg/kg.

[2] = tested on: M. tuberculosis H37Rv; assay: Two-drug combination growth inhibition, BACTEC 460, x/y quotient; type: cell-based; conditions: for interaction of SQ109 with isoniazid: both drugs at 0.5 MIC
[3] = tested on: RIF^R M. tuberculosis isolate 2482; assay: microbe, parasite or virus in culture; type: cell-based; conditions: Mycobacterium tuberculosis, read-out: MIC (BACTEC)
[4] = in vitro; type: in vitro ADME; conditions: plasma
[5] = tested on: wild type of M.tb; assay: MIC, secondary screening, wild type; type: cell-based, Mycobacterium tuberculosis; conditions: Mycobacterium tuberculosis, WT
[6] = tested on: cells; assay: LD50 for selectivity index (Table 10); type: cell-based, Mycobacterium tuberculosis
Excerpt: Table 10 lists MIC and LD50 data for selected compounds. […] Table 11 lists MIC data for purified substituted ethylene diamines in comparison to ethambutol (EMB).

[7] = tested on: M. tuberculosis; assay: Minimum Bactericidal Concentration (MBC); type: cell-based; conditions: Mycobacterium tuberculosis
[8] = tested on: M. tuberculosis H37Rv; assay: In vivo efficacy, mice infected i.v. with M. tuberculosis, CFU in spleen and lungs; parameters: species or system C57BL/6 mice
[9] = sub-MIC concentrations, listed as SQ109

For `CC(C)=CCC/C(C)=C/CNCCNC1C2CC3CC(C2)CC1C3` (stereo not shown) [Compound 109, N-Geranyl-N′-(2-adamanthyl)ethane-1,2-diamine], which tolerated dose [1] is on record?
The tolerated dose was 800 mg/kg.

What about the “growth inhibition of inoculum” value ([2]; 0.5 MIC SQ109 in combination with 0.1 MIC RIF) of the same compound?
The value was “greater than 99%”.

What about the “Synergy quotient (x/y)” value ([2]; SQ109 1/10 MIC + INH ½ MIC) of the same compound?
The value was 1.

What about the “Synergy quotient (x/y)” value ([2]; SQ109 1/10 MIC + MOX ½ MIC) of the same compound?
Its value is 1.

And the “Synergy quotient (x/y)” value ([2]; SQ109 1/10 MIC + MOX ⅕ MIC)?
Its value is 1.

And the “Synergy quotient (x/y)” value ([2]; SQ109 1/10 MIC + RIF 1/10 MIC)?
The value was 1.

And the “Synergy quotient (x/y)” value ([2]; SQ109 1/10 MIC + RIF 1/20 MIC)?
Its value is 1.

And the “Synergy quotient (x/y)” value ([2]; SQ109 1/10 MIC + RIF ¼ MIC)?
Its value is 1.

And the “Synergy quotient (x/y)” value ([2]; SQ109 1/10 MIC + RIF ½ MIC)?
Its value is 0.16.

And the “Synergy quotient (x/y)” value ([2]; SQ109 1/10 MIC + SM ½ MIC)?
Its value is 0.98.

And the “Synergy quotient (x/y)” value ([2]; SQ109 1/20 MIC + INH ½ MIC)?
Its value is 1.

And the “Synergy quotient (x/y)” value ([2]; SQ109 1/20 MIC + MOX ½ MIC)?
The value was 1.

What about the “Synergy quotient (x/y)” value ([2]; SQ109 1/20 MIC + MOX ⅕ MIC) of the same compound?
Its value is 1.

What about the “Synergy quotient (x/y)” value ([2]; SQ109 1/20 MIC + RIF 1/10 MIC) of the same compound?
Its value is 1.

What about the “Synergy quotient (x/y)” value ([2]; SQ109 1/20 MIC + RIF 1/20 MIC) of the same compound?
The value was 1.

What about the “Synergy quotient (x/y)” value ([2]; SQ109 1/20 MIC + RIF ¼ MIC) of the same compound?
Its value is 1.

And the “Synergy quotient (x/y)” value ([2]; SQ109 1/20 MIC + RIF ½ MIC)?
Its value is 0.32.

What about the “Synergy quotient (x/y)” value ([2]; SQ109 1/20 MIC + SM ½ MIC) of the same compound?
The value was 1.

What about the “Synergy quotient (x/y)” value ([2]; SQ109 ½ MIC + INH ½ MIC) of the same compound?
Its value is 0.45.

What about the “Synergy quotient (x/y)” value ([2]; SQ109 ½ MIC + MOX ½ MIC) of the same compound?
Its value is 0.45.

And the “Synergy quotient (x/y)” value ([2]; SQ109 ½ MIC + MOX ⅕ MIC)?
The value was 0.51.

And the “Synergy quotient (x/y)” value ([2]; SQ109 ½ MIC + RIF 1/10 MIC)?
The value was 0.29.

What about the “Synergy quotient (x/y)” value ([2]; SQ109 ½ MIC + RIF 1/20 MIC) of the same compound?
The value was 0.61.

What about the “Synergy quotient (x/y)” value ([2]; SQ109 ½ MIC + RIF ¼ MIC) of the same compound?
The value was 0.23.

What about the “Synergy quotient (x/y)” value ([2]; SQ109 ½ MIC + RIF ½ MIC) of the same compound?
Its value is 0.12.

And the “Synergy quotient (x/y)” value ([2]; SQ109 ½ MIC + SM ½ MIC)?
The value was 0.57.

What about the “Synergy quotient (x/y)” value ([2]; SQ109 ⅕ MIC + INH ½ MIC) of the same compound?
The value was 0.83.

And the “Synergy quotient (x/y)” value ([2]; SQ109 ⅕ MIC + MOX ½ MIC)?
The value was 0.96.

What about the “Synergy quotient (x/y)” value ([2]; SQ109 ⅕ MIC + MOX ⅕ MIC) of the same compound?
Its value is 1.

What about the “Synergy quotient (x/y)” value ([2]; SQ109 ⅕ MIC + RIF 1/10 MIC) of the same compound?
The value was 1.

And the “Synergy quotient (x/y)” value ([2]; SQ109 ⅕ MIC + RIF 1/20 MIC)?
The value was 1.

And the “Synergy quotient (x/y)” value ([2]; SQ109 ⅕ MIC + RIF ½ MIC)?
Its value is 0.4.

What about the “Synergy quotient (x/y)” value ([2]; SQ109 ⅕ MIC + SM ½ MIC) of the same compound?
The value was 0.74.

And the “interaction of SQ109 with isoniazid” value ([2]; listed as SQ 109)?
The value was “strong synergistic activity”.

What about the “interaction of SQ109 with isoniazid” value ([2]; listed as SQ109) of the same compound?
The value was “synergy”.

What about the “interaction of SQ109 with pyrazinamide” value ([2]; sub-MIC concentrations, PZA Test Medium, listed as SQ109) of the same compound?
The value was “neither synergy nor additive effects; also recorded: did not show any positive interaction”.

What about the “interaction of SQ109 with rifampicin” value ([2]; sub-MIC concentrations, listed as SQ 109) of the same compound?
Its value is “strong synergistic activity”.

What about the “interaction of SQ109 with ethambutol” value [2, 9] of the same compound?
Its value is “neither synergy nor additive effects; also recorded: did not show any positive interaction; also recorded: no interaction”.

And the “interaction of SQ109 with rifampicin” value [2, 9]?
Its value is “marked synergy”.

And the “interaction of SQ109 with streptomycin” value [2, 9]?
The value was “additive effect; also recorded: only additive interaction”.

What about the MIC [3] of the same compound?
The MIC was 0.32 µg/mL (≈ 0.968 µM).

And the fraction unbound at 20 ng/ml [4]?
The fraction unbound at 20 ng/ml was 0.85.

And the fraction unbound at 200 ng/ml [4]?
The fraction unbound at 200 ng/ml was 0.26.

And the fraction unbound at 2000 ng/ml [4]?
Its fraction unbound at 2000 ng/ml is 0.52.

And the MIC ([5]; value in brackets, read-out: MIC (or uM))?
Its MIC is 0.18 µM.

And the MIC ([5]; EMB, RL241, Cmpd#59 as 2HCl salt, Cmpd#109 as 2CF3COOH salt, read-out: MIC)?
The MIC was 0.1 µg/mL.

And the “SI (Selectivity Index)” value ([6]; LD50 : MIC)?
Its value is 16.39.

And the “LD50” value ([6]; concentration at which 50% of the cells are killed)?
Its value is 32 µM.

What about the “LD50” value ([6]; from uM and MW) of the same compound?
The value was 14.4 µg/mL.

What about the MBC [7] of the same compound?
Its MBC is 0.313 µg/mL (≈ 0.947 µM).

And the “difference with untreated control, spleen and lung” value ([8]; 0.1 mg/kg after 4 weeks of therapy, 5×10^6 CFU)?
Its value is “minimal but sufficient difference with untreated control”.

What about the “activity in the spleen compared with EMB” value ([8]; 1 mg/kg and 10 mg/kg, 5×10^5 CFU, chemotherapy from day 20) of the same compound?
The value was “equal to that of EMB at 100 mg/kg”.

And the “activity in the lung compared with EMB” value ([8]; 10 mg/kg after 4 and 6 weeks, 5×10^5 CFU)?
The value was “more effective than EMB at 100 mg/kg”.

What about the “activity in spleen and lung compared with EMB” value ([8]; 10 mg/kg and 25 mg/kg, shorter model, 5×10^6 CFU, 4 weeks) of the same compound?
The value was “equal to that of EMB at 100 mg/kg”.

What about the “activity (CFUs in spleen and lungs) compared with ethambutol” value ([8]; doses 1 and 10 mg/kg, orally by gavage) of the same compound?
The value was “equal to that of ethambutol at 100 mg/kg”.
